{"source": "paper PMC7004140", "about": "“In vitro hepatotoxicity of Petasites hybridus extract (Ze 339) depends on the concentration, the cytochrome activity of the cell system, and the species used” (Phytotherapy Research, 2019)", "key": {"[1]": {"test_system": "HepG2 cells", "experiment": "WST-1 metabolic activity (cytotoxicity) in HepG2 cells", "assay_type": "cell-based, human", "details": "HepG2, up to 250 μM, 4 hr", "experimental": "(§1) HepG2 and H‐4‐II‐E cells were differentiated for 24 hr. HepaRG cells were directly seeded in precoated 96‐well microtiter plates and were incubated in William's medium with general purpose supplements according to manufacturer's manual until adherence. All cells were treated with Ze 339 (up to 100 μg/ml) or petasin, isopetasin, neopetasin, petasol, isopetasol, petasin mixture, fatty acid mixture, and reconstituted extracts (up to 250 μM) for 4 hr.\n(§2) In the three cell lines, cytotoxicity was defined as a decrease in metabolic activity of ≥20% in the WST‐1 assay. At the end of the experiment, 10 μl WST‐1 reagent was added to each well. Plates were then incubated for 2 hr to allow for the reduction of WST‐1 reagent. Absorbance was measured using a microplate absorbance reader (Infinite M 200, Tecan Trading Ltd., Switzerland) at 450 nm, reference wavelength of 620 nm. Due to some matrix effect, the lowest concentration (0.02 μg/ml for Ze 339 and 3.9 μM for single constituents and mixtures) of each substance tested was defined as 100% metabolic activity. Results were expressed as percentage of the control metabolic activity, and data were presented as mean values ± SEM (n = 3–6).\n(§3) Concentration‐response analysis was done using the sigmoidal Hill equation: E(t) = E0 − Emax × C(t)^N/(IC50 ^N + C(t)^N), where E is the effect at time t, E0 the effect at baseline (time = 0), IC50 the concentration yielding 50% of the maximal effect (Emax), and N denotes the sigmoidicity coefficient (Origin 2017 Software). For statistical analysis, analysis of variance with Dunnett's multicomparison test was used to correct for multiplicity of testing (IBM SPSS Statistics software, version 25, IBM Corp., USA). The level of significance was ^* p < .05, ^** p < .01 and ^*** p < .001; NS = no significance."}, "[2]": {"test_system": "HepaRG cells", "experiment": "WST-1 metabolic activity (cytotoxicity) in HepaRG cells", "assay_type": "cell-based, human", "details": "4 hr", "experimental": "as §1, §2, §3"}, "[3]": {"test_system": "H-4-II-E cells", "experiment": "WST-1 metabolic activity (cytotoxicity) in H-4-II-E cells", "assay_type": "cell-based, rat (Rattus norvegicus)", "experimental": "as §1, §2, §3"}, "[4]": {"test_system": "HepaRG cells", "experiment": "Coincubation of Ze 339 with single cytochrome inhibitors in HepaRG cells (WST-1)", "assay_type": "cell-based, human", "details": "inhibitor 10 μM, Ze 339 100 μg/ml, 4 hr", "procedure": "To investigate whether metabolic activation by human phase I enzymes—at least in part—contributes to the cytotoxic effect, Ze 339 (concentrations up to 100 μg/ml) was coincubated in HepaRG cells for 4 hr with different single cytochromes inhibitors: ketoconazole (CYP3A4), sulfaphenazole (CYP2C9), montelukast (CYP2C8), omeprazole (CYP2C19), α‐naphthoflavone (CYP1A2), quinidine (CYP2D6), xanthotoxin (CYP2A6), chlormethiazole (CYP2E1), and ticlopidine (CYP2B6)—(each at a concentration of 10 μM). Inhibition of metabolic activity was evaluated with the WST‐1 assay using Ze 339 without inhibitor as a control."}}, "data": [{"smiles": "CC(C)=C1C[C@@]2(C)C(=CC1=O)CC[C@@H](O)[C@@H]2C", "note": "[isopetasol]", "values": [{"measurement": "cytotoxic effects", "setting": "[1]", "value": "did not show cytotoxic effects"}, {"measurement": "cytotoxicity", "setting": "[2]; highest concentration", "value": "not cytotoxic"}, {"measurement": "change in metabolic activity", "setting": "[3]; from 7.8 to 125 μM", "value": "increase in metabolic activity"}, {"measurement": "change in metabolic activity", "setting": "[3]; highest concentration", "value": "virtually no change"}]}, {"smiles": "C=C(C)[C@@H]1C[C@@]2(C)C(=CC1=O)CC[C@@H](O)[C@@H]2C", "note": "[petasol]", "values": [{"measurement": "cytotoxic effects", "setting": "[1]", "value": "did not show cytotoxic effects"}, {"measurement": "metabolic activity", "setting": "[2]; 250 μM", "value": 68.6, "unit": "%"}, {"measurement": "metabolic activity", "setting": "[3]; concentrations ≥125 μM", "value": "up to 109%"}, {"measurement": "change in metabolic activity", "setting": "[3]; medium concentrations 15.6–62.5 μM", "value": "slight decrease"}]}, {"smiles": "C=C[C@H]1C[N@@]2CC[C@H]1C[C@@H]2[C@@H](O)c1ccnc2ccc(OC)cc12", "note": "[quinidine]", "values": [{"measurement": "effect of cytochrome inhibitor on the cytotoxic effect of Ze 339", "setting": "[4]", "value": "attenuated"}]}, {"smiles": "CC(C)(O)c1ccccc1CC[C@@H](SCC1(CC(=O)O)CC1)c1cccc(/C=C/c2ccc3ccc(Cl)cc3n2)c1", "note": "[montelukast]", "values": [{"measurement": "effect of cytochrome inhibitor on the cytotoxic effect of Ze 339", "setting": "[4]", "value": "attenuated"}]}]}
